In the test the target is T1, receptor 5.24 (Carassius auratus, UniProt Q9PW88).
T1 construct: The receptor 5.24 full length cDNA detects 1-2 bands in genomic DNA blots; expressed in transfected cells; host or cells: HEK 293 cells expressing SV40 large T antigen (293-TSA)
T1 sequence (Q9PW88 25-877): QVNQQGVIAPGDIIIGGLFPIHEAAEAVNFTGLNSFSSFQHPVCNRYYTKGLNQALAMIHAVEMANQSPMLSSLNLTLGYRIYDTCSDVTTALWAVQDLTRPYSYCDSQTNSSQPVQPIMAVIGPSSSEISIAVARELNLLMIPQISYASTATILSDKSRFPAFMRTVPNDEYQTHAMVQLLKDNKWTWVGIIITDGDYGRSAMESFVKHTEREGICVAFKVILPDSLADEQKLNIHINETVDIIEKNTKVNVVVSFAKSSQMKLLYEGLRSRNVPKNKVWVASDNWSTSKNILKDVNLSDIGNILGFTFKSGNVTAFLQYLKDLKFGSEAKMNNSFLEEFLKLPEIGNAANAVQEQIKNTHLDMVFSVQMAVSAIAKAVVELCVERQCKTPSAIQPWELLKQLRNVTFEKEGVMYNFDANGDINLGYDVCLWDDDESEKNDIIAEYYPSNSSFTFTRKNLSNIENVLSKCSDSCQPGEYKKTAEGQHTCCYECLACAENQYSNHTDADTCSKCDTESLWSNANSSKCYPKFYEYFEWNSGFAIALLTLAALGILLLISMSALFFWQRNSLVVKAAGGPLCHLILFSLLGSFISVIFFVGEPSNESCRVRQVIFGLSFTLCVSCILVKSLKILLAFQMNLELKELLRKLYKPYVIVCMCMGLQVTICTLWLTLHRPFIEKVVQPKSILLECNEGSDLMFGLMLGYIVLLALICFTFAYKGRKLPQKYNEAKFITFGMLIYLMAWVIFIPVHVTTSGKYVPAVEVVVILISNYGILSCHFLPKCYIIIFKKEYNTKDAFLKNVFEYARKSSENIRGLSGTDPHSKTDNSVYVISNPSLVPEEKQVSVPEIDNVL
Description: biochemical. In kind it is binding. The method, then: Structure-Activity Properties of Compounds Interacting with the Cloned Goldfish Amino Acid Odorant Receptor. An understanding of how odorant receptors are used to encode olfactory information requires a characterization of the odorant specificities of individual receptor types. We therefore wished to determine the relative specificity of receptor 5.24 for structurally related ligands. […] Briefly, 3H-arginine binding to membranes from receptor 5.24-expressing HEK 293 cells was assayed in the absence or presence of varying concentrations of competitor ligands.
Mammalian Cell Culture and DNA Transfections. For cell transfections, the receptor 5.24 cDNA insert was subcloned into two expression vectors: CMVI, which utilizes a human cytomegalovirus (CMV) immediate early promoter-enhancer plus the CMV intron A sequence to drive expression, and 608RX-2.2L, which is similar to CMVI except the cDNA insert is followed by an internal ribosome entry site (IRES)—enhanced green fluorescent protein (EGFP) coding sequence; 608RX-2.2L also contains a puromycin resistance gene. For transient assays, HEK 293 cells expressing the SV40 large T antigen (293 TSA cells) were transfected with the CMVI-receptor 5.24 or CMVI control plasmid using lipofectamine (Life Technologies) and harvested at 48 hours for membrane preparations. For stable cell lines, 293-TSA cells were transfected with the 608RX-2.2L-receptor 5.24 plasmid or a control 608RX-2.2L plasmid and selected in puromycin. Colonies showing high levels of EGFP fluorescence (as judged by epifluorescence microscopy) were picked, expanded, and screened for 3H-L-arginine binding (see below).
Membrane Preparations and Ligand Binding Assays. Membranes for ligand binding assays were prepared by washing confluent cells three times with phosphate buffered saline (PBS), detaching cells with a PBS-based enzyme-free dissociation solution, and resuspending cells in ice-cold 5.0 mM Hepes, pH 7.4, 1.0 mM EDTA, 1.0 μg/ml leupeptin, 0.5 mM PMSF. All subsequent manipulations were performed on ice. After a 30 min incubation, the cell suspension was homogenized and centrifuged at 100,000×g for 30 min. Cell membrane pellets were washed twice by resuspension and centrifugation in binding buffer (20 mM Hepes, pH 7.4, 1.0 mM EDTA, 2.0 mM MgCl2, 1.0 μg/ml leupeptin, 0.5 mM PMSF), resuspended in binding buffer, and frozen at −80° C.
Saturation binding assays were performed using 20-25 μg of membrane protein in a final volume of 100 μl binding buffer and increasing concentrations of [2,3-3H] L-arginine (specific activity=40 Ci/mmol; Dupont NEN). Non-specific binding was measured in the presence of 500 μM unlabeled L-arginine. Competition assays were performed with 500 nM [2,3-3H] L-arginine and increasing concentrations of competitor ligands. All incubations were performed at 4° C. for 60 min and terminated by rapid filtration through Whatman GF/C filters pretreated with ice cold 0.1% polyethyleneimine. Filters were washed three times with 4.0 ml ice cold 20 mM Hepes, pH 7.4, and retained radioactivity was measured by scintillation counting.

Here are results for 1 compound from US6410249B1, “Odorant receptors” (priority 1999, dated 2002).

What is called Ki is a dissociation constant, usually derived from enzyme kinetics or from competition with a known ligand.

For `N=C(N)NCCC[C@H](N)C(=O)O` [L-Arginine], the Ki amounted to 80 nM. Where the note is “comparative binding studies”, the “binding to receptor 5.24, in words” value is reported as “highest affinities”.
